From the NIST ThermoML archive (doi:10.1021/je500424b)

Settings: Gas, Cylindrical cavity resonance method

O=C=O [carbon dioxide]
Settings	speed of sound [m/s]
260 K, 317.37 kPa	249.8
260 K, 379.95 kPa	249.06
260 K, 434.17 kPa	248.41
260 K, 501.31 kPa	247.6
260 K, 562.69 kPa	246.84
260 K, 626.77 kPa	246.05
260 K, 701.21 kPa	245.12
260 K, 760.19 kPa	244.37
260 K, 822.03 kPa	243.58
260 K, 884.92 kPa	242.76
270 K, 305.05 kPa	254.61
270 K, 362.27 kPa	254.01
270 K, 460.73 kPa	252.96
270 K, 556.68 kPa	251.92
270 K, 644.89 kPa	250.96
270 K, 732.1 kPa	250
270 K, 819.89 kPa	249.01
270 K, 906.73 kPa	248.03
270 K, 977.38 kPa	247.22
280 K, 280.31 kPa	259.38
280 K, 362.38 kPa	258.61
280 K, 453.25 kPa	257.75
280 K, 537.04 kPa	256.95
280 K, 621.46 kPa	256.13
280 K, 692.2 kPa	255.44
280 K, 798.98 kPa	254.39
280 K, 884.2 kPa	253.55
280 K, 981.82 kPa	252.56
290 K, 228.71 kPa	264.19
290 K, 282.86 kPa	263.73
290 K, 355.64 kPa	263.12
290 K, 421.86 kPa	262.56
290 K, 490.56 kPa	261.98
290 K, 571.6 kPa	261.28
290 K, 655.16 kPa	260.56
290 K, 733.65 kPa	259.88
290 K, 819.49 kPa	259.12
300 K, 280.85 kPa	268.06
300 K, 340.26 kPa	267.62
300 K, 415.37 kPa	267.05
300 K, 500.85 kPa	266.39
300 K, 583.49 kPa	265.76
300 K, 663.9 kPa	265.13
300 K, 755.49 kPa	264.42
300 K, 847.25 kPa	263.7
300 K, 927.15 kPa	263.07
300 K, 1017.3 kPa	262.36
304.09 K, 434.91 kPa	268.66
304.09 K, 544.65 kPa	267.86
304.09 K, 772.25 kPa	266.17
304.09 K, 868.88 kPa	265.45
304.09 K, 968.58 kPa	264.69
312.75 K, 394.2 kPa	272.63
312.75 K, 441.68 kPa	272.31
312.75 K, 534.77 kPa	271.69
312.75 K, 636.23 kPa	271
312.75 K, 729.55 kPa	270.37
312.75 K, 858.54 kPa	269.49
312.75 K, 959.38 kPa	268.8
322.75 K, 314.03 kPa	277.28
322.75 K, 412.26 kPa	276.69
322.75 K, 522.36 kPa	276.02
322.75 K, 624.83 kPa	275.4
322.75 K, 735.59 kPa	274.72
322.75 K, 832.63 kPa	274.13
322.75 K, 929.78 kPa	273.53
332.75 K, 316.28 kPa	281.3
332.75 K, 415.5 kPa	280.76
332.75 K, 520.66 kPa	280.19
332.75 K, 544.84 kPa	280.05
332.75 K, 664.72 kPa	279.39
332.75 K, 755.5 kPa	278.89
332.75 K, 857.33 kPa	278.33
332.75 K, 958.15 kPa	277.78
